Laboratory results taken from article PMC12040169 (PLOS Biology, 2025).

test: in vitro; conditions: human, hela cells, % viability

| SMILES | viability at 28.5 h, 10 µM [%] |
| --- | --- |
| CNC(=O)c1cccc(NC(=O)c2cc(-c3ccc(O)cc3)cnc2N(C)C)c1 [CBK106397] | 89.6 |
| O=C(O)c1cccc(-c2cnc(NCC3CC3)c(C(=O)NCC(F)(F)F)c2)c1 [CBK106420] | 117 |
| Cc1ccccc1-c1cnc(NS(C)(=O)=O)c(C(=O)N(C)C)c1 [CBK106430] | 103 |
| O=C1CCC(=O)N1CCn1c(=O)n(S(=O)(=O)c2cccc(Cl)c2)c2ccccc21 [CBK106493] | 93.1 |
| CCCS(=O)(=O)n1c(=O)n(CC(=O)c2ccccc2OC)c2ccccc21 [CBK106498] | 93.1 |
| CCN(CC)c1ccc(C(=O)Cn2c(=O)n(C(=O)CCCc3ccc(OC)cc3)c3ccccc32)cc1 [CBK106503] | 89.6 |
| CCN(CC)c1ccc(C(=O)Cn2c(=O)n(S(=O)(=O)c3ccc4ccccc4c3)c3ccccc32)cc1 [CBK106505] | 88.9 |
| COC(=O)c1ccccc1S(=O)(=O)n1c(=O)n(CCc2c[nH]c3ccccc23)c2ccccc21 [CBK106509] | 87.2 |
| CC(C)c1ccc(S(=O)(=O)n2c(=O)n(CCc3c[nH]c4ccccc34)c3ccccc32)cc1 [CBK106518] | 87.4 |
| CS(=O)(=O)c1cccc(C(=O)n2c(=O)n(CC3CCCCC3)c3ccccc32)c1 [CBK106520] | 103 |
| COC(=O)CCCC(=O)n1c(=O)n(CC2CCCCC2)c2ccccc21 [CBK106524] | 112 |
| O=c1n(CC2CCCCC2)c2ccccc2n1S(=O)(=O)c1ccc2ccccc2c1 [CBK106527] | 92.5 |
| CS(=O)(=O)c1ccc(Cn2c(=O)n(S(=O)(=O)c3ccccc3)c3ccccc32)cc1 [CBK106530] | 95.1 |
| CN(C)c1cccc2c(S(=O)(=O)n3c(=O)n(Cc4ccc(S(C)(=O)=O)cc4)c4ccccc43)cccc12 [CBK106535] | 103 |
| COC(=O)CCCC(=O)n1c(=O)n(Cc2ccc(S(C)(=O)=O)cc2)c2ccccc21 [CBK106538] | 105 |
| COc1ccc(Cn2c(=O)n(S(=O)(=O)c3ccc(C)cc3)c3ccccc32)cc1 [CBK106550] | 95.1 |
| COc1ccc(Cn2c(=O)n(C(=O)CCc3cccc(OC)c3)c3ccccc32)cc1 [CBK106557] | 113 |
| COc1ccc(Cn2c(=O)n(S(=O)(=O)c3cccc(-c4nnc(C)o4)c3)c3ccccc32)cc1 [CBK106558] | 89.8 |
| CC(C)S(=O)(=O)n1c(=O)n(CC(=O)c2csc3ccccc23)c2ccccc21 [CBK106559] | 99.8 |
| COc1cccc(CCC(=O)n2ccn(CCCOc3ccccc3)c2=O)c1 [CBK106565] | 104 |
| Cc1ccccc1-n1ccn(S(=O)(=O)c2ccccc2)c1=O [CBK106567] | 86.7 |
| Cc1ccccc1-n1ccn(C(=O)CCC2CCCC2)c1=O [CBK106571] | 106 |
| Cc1ccccc1-n1ccn(C(=O)CCCOc2ccc(Cl)cc2)c1=O [CBK106573] | 88.5 |

| SMILES | viability at 28.5 h, 10 µM [%] |
| --- | --- |
| CS(=O)(=O)c1ccccc1C(=O)n1ccn(-c2cccc(C(F)(F)F)c2)c1=O [CBK106584] | 91.1 |
| O=c1n(-c2cccc(C(F)(F)F)c2)ccn1S(=O)(=O)c1ccc(N2CCOCC2)nc1 [CBK106590] | 104 |
| Cc1nnc(-c2cccc(S(=O)(=O)n3ccn(-c4cccc(C(F)(F)F)c4)c3=O)c2)o1 [CBK106592] | 91.9 |
| Cc1nn(C)c(C)c1S(=O)(=O)n1ccn(-c2cccc(C(F)(F)F)c2)c1=O [CBK106593] | 98.7 |
| COC(=O)c1ccc(S(=O)(=O)n2ccn(-c3cccc(C(F)(F)F)c3)c2=O)n1C [CBK106594] | 90.1 |
| COc1ccc(-n2ccn(C(=O)CCC3CCCC3)c2=O)cc1 [CBK106595] | 90.4 |
| COc1cccc(CCC(=O)n2ccn(-c3ccc(N(C)C)cc3)c2=O)c1 [CBK106609] | 99 |
| O=C(CCC1CCCC1)n1ccn(CCc2cccs2)c1=O [CBK106611] | 97.6 |
| COC(=O)CCCC(=O)n1ccn(CCc2cccs2)c1=O [CBK106612] | 92 |
| O=c1n(C(c2ccccc2)c2ccccc2)ccn1S(=O)(=O)c1cccc(Cl)c1 [CBK106615] | 91.5 |
| O=C(CCC1CCCC1)n1ccn(C(c2ccccc2)c2ccccc2)c1=O [CBK106619] | 103 |
| COc1ccc(S(=O)(=O)n2ccn(C(c3ccccc3)c3ccccc3)c2=O)cc1OC [CBK106621] | 89.1 |
| O=C(CCC1CCCC1)n1ccn(-c2ccc3c(c2)OCO3)c1=O [CBK106631] | 101 |
| CCCc1ccc(S(=O)(=O)n2ccn(-c3ccc4c(c3)OCO4)c2=O)cc1 [CBK106634] | 94.6 |
| CS(=O)(=O)c1ccccc1C(=O)n1ccn(-c2ccc(Oc3ccccc3)cc2)c1=O [CBK106647] | 80.8 |
| c1ccc(-c2nccnc2OCCc2cccs2)cc1 [CBK106673] | 103 |
| CC(=O)Nc1ccc(CCOc2nccnc2-c2ccccc2)cc1 [CBK106683] | 96.3 |
| c1ccc(COc2nccnc2-c2ccccc2)cc1 [CBK106686] | 92.2 |
| O=C1CCC(=O)N1CCOc1nccnc1-c1ccc2c(c1)OCO2 [CBK106698] | 92.3 |
| c1cnc(-c2ccc3c(c2)OCO3)c(OC2CCCCC2)n1 [CBK106706] | 92.4 |
| CC(C)CCOc1nccnc1-c1ccc2c(c1)OCO2 [CBK106711] | 104 |
| COc1ncc(-c2nccnc2OC)c(OC)n1 [CBK106744] | 94.2 |
| COc1ncc(-c2nccnc2OCCn2cnc3c2c(=O)n(C)c(=O)n3C)c(OC)n1 [CBK106746] | 87.3 |

| SMILES | viability at 28.5 h, 10 µM [%] |
| --- | --- |
| COc1ncc(-c2nccnc2Oc2cccc(NC(C)=O)c2)c(OC)n1 [CBK106747] | 89.6 |
| COc1ncc(-c2nccnc2OCCOc2ccccc2)c(OC)n1 [CBK106752] | 91.1 |
| COc1ncc(-c2nccnc2OCC2COc3ccccc3O2)c(OC)n1 (stereo not shown) [CBK106754] | 102 |
| CCCCOc1nccnc1-c1cnc(OC)nc1OC [CBK106756] | 98.8 |
| COc1cccc(Oc2nccnc2-c2ccsc2)c1 [CBK106762] | 92.1 |
| c1cnc(-c2ccsc2)c(OC2CCCCC2)n1 [CBK106764] | 97.6 |
| O=C1NCCN1CCOc1nccnc1-c1ccsc1 [CBK106766] | 93.4 |
| c1csc(COc2nccnc2-c2ccsc2)c1 [CBK106770] | 100 |
| c1ccn(CCOc2nccnc2-c2ccsc2)c1 [CBK106772] | 94.4 |
| COc1ccc(CCOc2nccnc2-c2ccsc2)cc1 [CBK106775] | 72 |
| COc1nccnc1-c1cc2ccccc2s1 [CBK106781] | 87.7 |
| c1csc(COc2nccnc2-c2cc3ccccc3s2)c1 [CBK106786] | 99.5 |
| CSc1ccc(-c2nccnc2OC(c2ccccc2)c2ccccc2)cc1 [CBK106797] | 90.2 |
| CSc1ccc(-c2nccnc2OCCC(C)C)cc1 [CBK106802] | 113 |
| COC(=O)COc1nccnc1-c1ccc(SC)cc1 [CBK106806] | 107 |
| COc1ccccc1-c1nccnc1OCCc1c[nH]c2ccccc12 [CBK106807] | 87.7 |
| COc1ccccc1-c1nccnc1OC(c1ccccc1)c1ccccc1 [CBK106813] | 93.8 |
| COc1ccccc1-c1nccnc1OCCc1ccc(NC(C)=O)cc1 [CBK106815] | 115 |
| FC(F)(F)Oc1ccc(-c2nccnc2OCC2COc3ccccc3O2)cc1 (stereo not shown) [CBK106845] | 97.7 |
| COC(=O)COc1nccnc1-c1ccc(OC(F)(F)F)cc1 [CBK106849] | 90.4 |
| COc1nccnc1-c1ccc(C)c(C)c1 [CBK106853] | 88.7 |
| Cc1ccc(-c2nccnc2OCc2ccccc2)cc1C [CBK106861] | 90.8 |
| Cc1ccc(-c2nccnc2OCc2ccco2)cc1C [CBK106863] | 90.2 |

| SMILES | viability at 28.5 h, 10 µM [%] |
| --- | --- |
| Cc1ccc(-c2nccnc2OCCOc2ccccc2)cc1C [CBK106865] | 90.8 |
| CCCCOc1nccnc1-c1ccc(C)c(C)c1 [CBK106870] | 95.1 |
| COC(=O)COc1nccnc1-c1ccc(C)c(C)c1 [CBK106871] | 83.3 |
| C(=C\c1nccnc1OCCc1cccs1)/c1ccccc1 [CBK106873] | 101 |
| COc1nccnc1/C=C/c1ccccc1 [CBK106876] | 115 |
| COc1cccc(Oc2nccnc2/C=C/c2ccccc2)c1 [CBK106877] | 107 |
| C(=C\c1nccnc1OC(c1ccccc1)c1ccccc1)/c1ccccc1 [CBK106878] | 99.1 |
| C(=C\c1nccnc1OCCOc1ccccc1)/c1ccccc1 [CBK106885] | 91.6 |
| CC(C)N(CCOc1nccnc1/C=C/c1ccccc1)C(C)C [CBK106889] | 96 |
| CCCC/C=C\c1nccnc1OCCn1cccc1 [CBK106891] | 104 |
| O=C1CCCN1CCOc1nccnc1-c1ccc(F)cc1 [CBK106895] | 98.7 |
| Fc1ccc(-c2nccnc2OCc2ccc3c(c2)OCO3)cc1 [CBK106896] | 93.3 |
| O=C1NCCN1CCOc1nccnc1-c1ccc(F)cc1 [CBK106898] | 97.8 |
| COCc1cccc(-c2nccnc2OCc2ccccn2)c1 [CBK106953] | 96 |
| COCc1cccc(-c2nccnc2OCC(=O)OC)c1 [CBK106976] | 98.7 |
| Cc1ccc(-c2nccnc2OCc2ccccn2)c(C)c1 [CBK106979] | 90.7 |
| Cc1ccc(-c2nccnc2OC2CCCCC2)c(C)c1 [CBK106983] | 94 |
| CC(=O)Nc1ccc(CCOc2nccnc2-c2ccc(C)cc2C)cc1 [CBK106985] | 96.7 |
| Cc1ccc(-c2nccnc2OCCOc2ccccc2)c(C)c1 [CBK106991] | 86.1 |
| O=C1CCCN1CCOc1nccnc1-c1ccccc1Cl [CBK106999] | 100 |
| COc1nccnc1-c1ccccc1Cl [CBK107000] | 100 |
| Clc1ccccc1-c1nccnc1OC(c1ccccc1)c1ccccc1 [CBK107002] | 92.9 |
